These results are taken from US12091405B2, “Substituted pyrazole compounds as indoleamine 2,3-dioxygenase inhibitors” (Merck Sharp & Dohme LLC, priority 2018, dated 2024).

The target in the experiment is IDO1 (Homo sapiens, UniProt P14902). The experiment is described as follows: IDO1 Cellular Assay in HeLa Cells Stimulated with IFNγ. The class given is cell-based. The conditions noted are these: IFNγ 100 ng/mL, 300 uM L-tryptophan, about 48 hours, fluorescence readout, read-out: IDO1 HELA Cell Assay, IC50.
IDO1, sequence (P14902 whole entry): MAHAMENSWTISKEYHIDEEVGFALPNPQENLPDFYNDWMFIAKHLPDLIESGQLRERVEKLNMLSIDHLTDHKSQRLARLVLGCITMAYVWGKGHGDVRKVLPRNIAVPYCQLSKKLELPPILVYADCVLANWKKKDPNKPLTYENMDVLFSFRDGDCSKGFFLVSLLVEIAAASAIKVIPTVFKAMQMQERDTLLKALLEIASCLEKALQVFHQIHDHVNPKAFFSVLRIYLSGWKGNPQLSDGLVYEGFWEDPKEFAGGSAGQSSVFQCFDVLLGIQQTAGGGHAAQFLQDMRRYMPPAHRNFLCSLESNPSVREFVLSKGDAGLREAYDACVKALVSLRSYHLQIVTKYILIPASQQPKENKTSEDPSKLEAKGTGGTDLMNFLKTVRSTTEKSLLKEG
Regarding `C[C@@H]1CN(C(=O)c2nn(CC(=O)N3CCC(c4cc(Cl)cc(Cl)c4)CC3)c3c2CCC3)C[C@H](C)O1` [Example 167, 1-[4-(3,5-dichlorophenyl)piperidin-1-yl]-2-{3-[(2R,6S)-2,6-dimethylmorpholine-4-carbonyl]-5,6-dihydrocyclopenta[c]pyrazol-1(4H)-yl}ethan-1-one], the half-inhibitory concentration (IC50) amounted to 274 nM. In the case of `C[C@@H]1CN(C(=O)c2nn(CC(=O)N3CCC(c4ccc(C(F)(F)F)c(Cl)c4)CC3)c3c2CCC3)C[C@H](C)O1` [Example 169, 1-{4-[3-chloro-4-(trifluoromethyl)phenyl]piperidin-1-yl}-2-{3-[(2R,6S)-2,6-dimethylmorpholine-4-carbonyl]-5,6-dihydrocyclopenta[c]pyrazol-1(4H)-yl}ethan-1-one], the concentration for half-maximal inhibition (IC50) amounted to 329 nM. Regarding `Cc1cc(C)cc(C2CCN(C(=O)Cn3nc(C(=O)N4C[C@@H](C)O[C@@H](C)C4)c4c3CCC4)CC2)c1` [Example 155, 2-{3-[(2R,6S)-2,6-dimethylmorpholine-4-carbonyl]-5,6-dihydrocyclopenta[c]pyrazol-1(4H)-yl}-1-[4-(3,5-dimethylphenyl)piperidin-1-yl]ethan-1-one], the 50% inhibitory concentration (IC50) worked out at 143 nM. Regarding `CC(C)c1ccc(C2CCN(C(=O)Cn3nc(C(=O)N4C[C@@H](C)O[C@@H](C)C4)c4c3CCC4)CC2)cc1` [Example 168, 2-{3-[(2R,6S)-2,6-dimethylmorpholine-4-carbonyl]-5,6-dihydrocyclopenta[c]pyrazol-1(4H)-yl}-1-{4-[4-(propan-2-yl)phenyl]piperidin-1-yl}ethan-1-one], the IC50 is 296 nM. Turning to `Cc1ccc(C2CCN(C(=O)Cn3nc(C(=O)N4C[C@@H](C)O[C@@H](C)C4)c4c3CCC4)CC2)cc1C` [Example 89, 2-{3-[(2R,6S)-2,6-dimethylmorpholine-4-carbonyl]-5,6-dihydrocyclopenta[c]pyrazol-1(4H)-yl}-1-[4-(3,4-dimethylphenyl)piperidin-1-yl]ethan-1-one], the IC50 was 8.8 nM. Take `Cc1c(C2CCN(C(=O)Cn3nc(C(=O)N4CCO[C@@H](CO)C4)c4c3C[C@H]3C[C@@H]43)CC2)cccc1C(F)(F)F` [Example 5, 2-((3bR,4aR)-3-((R)-2-(hydroxymethyl)morpholine-4-carbonyl)-3b,4,4a,5-tetrahydro-1H-cyclopropa[3,4]cyclopenta[1,2-c]pyrazol-1-yl)-1-(4-(2-methyl-3-(trifluoromethyl)phenyl)piperidin-1-yl)ethanone]: the IC50 came to 1.7 nM. As for `COc1c(C)cc(C2CCN(C(=O)Cn3nc(C(=O)N4C[C@@H](C)O[C@@H](C)C4)c4c3CCC4)CC2)cc1C` [Example 102, 2-{3-[(2R,6S)-2,6-dimethylmorpholine-4-carbonyl]-5,6-dihydrocyclopenta[c]pyrazol-1(4H)-yl}-1-[4-(4-methoxy-3,5-dimethylphenyl)piperidin-1-yl]ethan-1-one], the half-inhibitory concentration (IC50) was determined as 28.9 nM. As for `COc1c(F)cc(C2CCN(C(=O)Cn3nc(C(=O)N4C[C@@H](C)O[C@@H](C)C4)c4c3CCC4)CC2)cc1F` [Example 134, 1-[4-(3,5-difluoro-4-methoxyphenyl)piperidin-1-yl]-2-{3-[(2R,6S)-2,6-dimethylmorpholine-4-carbonyl]-5,6-dihydrocyclopenta[c]pyrazol-1(4H)-yl}ethan-1-one], the half-maximal inhibitory concentration (IC50) came to 82.1 nM.

For the compound `Cc1cccc(C2CCN(C(=O)Cn3nc(C(=O)N4CC[C@H](O)[C@@H](F)C4)c4c3C[C@H]3C[C@@H]43)CC2)c1C` [Example 23, 1-[4-(2,3-dimethylphenyl)piperidin-1-yl]-2-{(3bR,4aR)-3-[(3S,4S)-3-fluoro-4-hydroxypiperidine-1-carbonyl]-3b,4,4a,5-tetrahydro-1H-cyclopropa[3,4]cyclopenta[1,2-c]pyrazol-1-yl}ethan-1-one], the IC50 worked out at 1.1 nM. On to `Cc1ccnc(C2CCN(C(=O)Cn3nc(C(=O)N4C[C@@H](C)O[C@@H](C)C4)c4c3CCC4)CC2)c1C` [Example 80, 2-(3-(cis-2,6-dimethylmorpholine-4-carbonyl)-5,6-dihydrocyclopenta[c]pyrazol-1(4H)-yl)-1-(4-(3,4-dimethylpyridin-2-yl)piperidin-1-yl)ethan-1-one], for which the 50% inhibitory concentration (IC50) worked out at 74.2 nM.

For the compound `COc1c(F)cccc1C1CCN(C(=O)Cn2nc(C(=O)N3C[C@@H](C)O[C@@H](C)C3)c3c2CCC3)CC1` [Example 115, 2-{3-[(2R,6S)-2,6-dimethylmorpholine-4-carbonyl]-5,6-dihydrocyclopenta[c]pyrazol-1(4H)-yl}-1-[4-(3-fluoro-2-methoxyphenyl)piperidin-1-yl]ethan-1-one], the concentration for half-maximal inhibition (IC50) is 48.5 nM. With `C[C@@H]1CN(C(=O)c2nn(CC(=O)N3CCC(c4ccc(F)cc4)CC3)c3c2CCC3)C[C@H](C)O1` [Example 68, 2-{3-[(2R,6S)-2,6-dimethylmorpholine-4-carbonyl]-5,6-dihydrocyclopenta[c]pyrazol-1(4H)-yl}-1-[4-(4-fluorophenyl)piperidin-1-yl]ethan-1-one] the figure was 71.2 nM. Regarding `C[C@@H]1CN(C(=O)c2nn(CC(=O)N3CCC(c4ccc5c(c4)CCO5)CC3)c3c2CCC3)C[C@H](C)O1` [Example 93, 1-[4-(2,3-dihydro-1-benzofuran-5-yl)piperidin-1-yl]-2-{3-[(2R,6S)-2,6-dimethylmorpholine-4-carbonyl]-5,6-dihydrocyclopenta[c]pyrazol-1(4H)-yl}ethan-1-one], the 50% inhibitory concentration (IC50) was 17.8 nM. `C[C@@H]1CN(C(=O)c2nn(CC(=O)N3CCC(c4cc(F)c(F)c(F)c4Cl)CC3)c3c2CCC3)C[C@H](C)O1` [Example 132, 1-[4-(2-chloro-3,4,5-trifluorophenyl)piperidin-1-yl]-2-{3-[(2R,6S)-2,6-dimethylmorpholine-4-carbonyl]-5,6-dihydrocyclopenta[c]pyrazol-1(4H)-yl}ethan-1-one]: the half-inhibitory concentration (IC50) stood at 80.2 nM.

In the case of `COc1cccc(C2CCN(C(=O)Cn3nc(C(=O)N4C[C@@H](C)O[C@@H](C)C4)c4c3CCC4)CC2)c1` [Example 108, 2-{3-[(2R,6S)-2,6-dimethylmorpholine-4-carbonyl]-5,6-dihydrocyclopenta[c]pyrazol-1(4H)-yl}-1-[4-(3-methoxyphenyl)piperidin-1-yl]ethan-1-one], the IC50 was determined as 37.9 nM. With `Cc1ccc(F)c(C2CCN(C(=O)Cn3nc(C(=O)N4C[C@@H](C)O[C@@H](C)C4)c4c3CCC4)CC2)c1` [Example 119, 2-{3-[(2R,6S)-2,6-dimethylmorpholine-4-carbonyl]-5,6-dihydrocyclopenta[c]pyrazol-1(4H)-yl}-1-[4-(2-fluoro-5-methylphenyl)piperidin-1-yl]ethan-1-one] the figure was 52.1 nM.

Turning to `COc1ccc(C2CCN(C(=O)Cn3nc(C(=O)N4C[C@@H](C)O[C@@H](C)C4)c4c3CCC4)CC2)c(C)c1C` [Example 138, 2-{3-[(2R,6S)-2,6-dimethylmorpholine-4-carbonyl]-5,6-dihydrocyclopenta[c]pyrazol-1(4H)-yl}-1-[4-(4-methoxy-2,3-dimethylphenyl)piperidin-1-yl]ethan-1-one], the 50% inhibitory concentration (IC50) stood at 87.6 nM. As for `COc1ccc(C2CCN(C(=O)Cn3nc(C(=O)N4C[C@@H](C)O[C@@H](C)C4)c4c3CCC4)CC2)c(F)c1` [Example 137, 2-{3-[(2R,6S)-2,6-dimethylmorpholine-4-carbonyl]-5,6-dihydrocyclopenta[c]pyrazol-1(4H)-yl}-1-[4-(2-fluoro-4-methoxyphenyl)piperidin-1-yl] ethan-1-one], the IC50 turned out to be 85 nM.

In the case of `C[C@@H]1CN(C(=O)c2nn(CC(=O)N3CCC(c4ccc(F)cc4Cl)CC3)c3c2CCC3)C[C@H](C)O1` [Example 124, 1-[4-(2-chloro-4-fluorophenyl)piperidin-1-yl]-2-{3-[(2R,6S)-2,6-dimethylmorpholine-4-carbonyl]-5,6-dihydrocyclopenta[c]pyrazol-1(4H)-yl}ethan-1-one], the half-inhibitory concentration (IC50) turned out to be 57 nM. On to `C[C@@H]1CN(C(=O)c2nn(CC(=O)N3CCCC(c4ccccc4)CC3)c3c2CCC3)C[C@H](C)O1` (stereo partly drawn) [Example 74, 2-{3-[(2R,6S)-2,6-dimethylmorpholine-4-carbonyl]-5,6-dihydrocyclopenta[c]pyrazol-1(4H)-yl}-1-(4-phenylazepan-1-yl)ethan-1-one], for which the IC50 stood at 170 nM. Consider `C[C@@H]1CN(C(=O)c2nn(CC(=O)N3CCC(c4ccc(Cl)c(Cl)c4)CC3)c3c2CCC3)C[C@H](C)O1` [Example 123, 1-[4-(3,4-dichlorophenyl)piperidin-1-yl]-2-{3-[(2R,6S)-2,6-dimethylmorpholine-4-carbonyl]-5,6-dihydrocyclopenta[c]pyrazol-1(4H)-yl}ethan-1-one], for which the IC50 is 54.5 nM. `C[C@@H]1CN(C(=O)c2nn(CC(=O)N3CCC(c4ccc(F)c(C(F)F)c4)CC3)c3c2CCC3)C[C@H](C)O1` [Example 133, 1-{4-[3-(difluoromethyl)-4-fluorophenyl]piperidin-1-yl}-2-{3-[(2R,6S)-2,6-dimethylmorpholine-4-carbonyl]-5,6-dihydrocyclopenta[c]pyrazol-1(4H)-yl}ethan-1-one]: the IC50 was 81.7 nM. Turning to `Cc1cc(F)ccc1C1CCN(C(=O)Cn2nc(C(=O)N3CC[C@@H](O)[C@H](F)C3)c3c2CCC3)CC1` [Example 54, 1-(4-(4-fluoro-2-methylphenyl)piperidin-1-yl)-2-(3-((3R,4R)-3-fluoro-4-hydroxypiperidine-1-carbonyl)-5,6-dihydrocyclopenta[c]pyrazol-1(4H)-yl)ethanone], the concentration for half-maximal inhibition (IC50) came to 162 nM. For `C[C@@H]1CN(C(=O)c2nn(CC(=O)N3CCC(c4cc(F)c(F)cc4F)CC3)c3c2CCC3)C[C@H](C)O1` [Example 149, 2-{3-[(2R,6S)-2,6-dimethylmorpholine-4-carbonyl]-5,6-dihydrocyclopenta[c]pyrazol-1(4H)-yl}-1-[4-(2,4,5-trifluorophenyl)piperidin-1-yl]ethan-1-one], the half-inhibitory concentration (IC50) is 120 nM. As for `C[C@@H]1CN(C(=O)c2nn(CC(=O)N3CCC(c4cccc(C(F)(F)F)c4F)CC3)c3c2CCC3)C[C@H](C)O1` [Example 104, 2-{3-[(2R,6S)-2,6-dimethylmorpholine-4-carbonyl]-5,6-dihydrocyclopenta[c]pyrazol-1(4H)-yl}-1-{4-[2-fluoro-3-(trifluoromethyl)phenyl]piperidin-1-yl}ethan-1-one], the concentration for half-maximal inhibition (IC50) was found to be 29.8 nM.
